Measured values as given in US5434182A (priority 1993, dated 1995).
Values joined by “and” are separate entries in the source; they are usually repeats but may differ in a detail not shown here. Identical values can stand only once. Like-named read-outs stand apart in the source and are kept apart here.

Key:
VSV [1] = assay: microbe, parasite or virus in culture; format: cell-based, vesicular stomatitis virus; settings: for Reduction in VSV titer: 10 mM sodium taurocholate, human plasma; for log reduction at 4000 µM / log reduction at 7500 µM / log reduction at 15000 µM: Vesicular stomatitis virus, read-out: Reduction in VSV titer
VSV [2] = assay: microbe, parasite or virus in culture; format: cell-based, vesicular stomatitis virus strain Indiana; settings: for minimal effective concentration: read-out: Lowest concentration causing ≥3.0 log10 reduction in virus titer
VSV [3] = assay: microbe, parasite or virus in culture; format: cell-based, vesicular stomatitis virus; settings: Vesicular stomatitis virus
Total White Blood Cells = assay: Stability of white blood cells in whole human blood to added lipid; format: cell-based; set-up: unit not given here; settings: 15 mM, control 6.4
Source text: Further testing has shown the effect of monoglyceride esters and ether on the total white blood cell concentration in whole human blood.

Solubility = format: physicochemical; settings: vs 1-monodecanoyl-rac-glycerol
HSV-1 = assay: microbe, parasite or virus in culture; format: cell-based, herpes simplex virus type 1 strain MacIntyre; settings: Human alphaherpesvirus 1, 0.5 h; 0.5 mg/ml, 37° C., 30 min; read-out: Reduction of virus titer, HSV-1
Red Blood Cells = assay: Stability of red blood cells in whole human blood to added monoglyceride; format: cell-based; settings: 3 mg/ml
Source text: Effect of Added Monoglyceride on RBCs in Human Blood.

Group B streptococcus = assay: Inactivation of bacteria by monoglycerides, Group B streptococcus; format: cell-based; settings: 2 mg/ml, read-out: Reduction of bacterial concentration, Group B streptococcus
[4] = Vesicular stomatitis virus, 0.5 h
[5] = Vesicular stomatitis virus, 0.5 h, read-out: Reduction of virus titer, VSV
[6] = read-out: Reduction in VSV Titer, 7.5 mM, 0 mM sodium taurocholate, human serum
[7] = read-out: Reduction in VSV Titer, 7.5 mM, 2 mM sodium taurocholate, human serum
[8] = read-out: Reduction in VSV Titer, 7.5 mM, 4 mM sodium taurocholate, human serum
[9] = read-out: Reduction in VSV Titer, 7.5 mM, 6 mM sodium taurocholate, human serum
[10] = read-out: Reduction in VSV Titer, 7.5 mM, 8 mM sodium taurocholate, human serum
[11] = read-out: Reduction in VSV Titer, 7.5 mM, 10 mM sodium taurocholate, human serum
[12] = read-out: Reduction in VSV Titer, 7.5 mM, 12 mM sodium taurocholate, human serum

Row | Structure (SMILES) | Reduction in VSV titer (VSV [1]; 4 mM) [log10] | Reduction in VSV titer (VSV [1]; 7.5 mM) [log10] | Reduction in VSV titer (VSV [1]; 15 mM) [log10] | log reduction at 4000 µM (VSV [1]) | log reduction at 7500 µM (VSV [1]) | log reduction at 15000 µM (VSV [1]) | minimal effective concentration (VSV [2]; [4]) | log reduction at 7500 µM (VSV [3]; [6]) | log reduction at 7500 µM (VSV [3]; [7]) | log reduction at 7500 µM (VSV [3]; [8]) | log reduction at 7500 µM (VSV [3]; [9]) | log reduction at 7500 µM (VSV [3]; [10]) | log reduction at 7500 µM (VSV [3]; [11]) | log reduction at 7500 µM (VSV [3]; [12]) | Total White Blood Cells (Total White Blood Cells) | other results
1 | CCCCCCCC(=O)OCC(O)CO (racemic) [Monocaprylin (8:0), 1-Monocapryloyl-rac-glycerol] | 2.0 | ≥ 4.0 | ≥ 4.0 | 0 | 1 | 2 | 2000 µg/mL and 9000 µM | ≥ 1 | ≥ 3 | 4 | ≥ 5 | ≥ 5 | ≥ 5 | ≥ 5 | 2.4 | log reduction at 2000 µg/mL (VSV [2]; [5]): ≥ 4; solubility in words (Solubility): more soluble
2 | CCCCCCCCCC(=O)OCC(O)CO (racemic) [Monocaprin (10:0), 1-Monodecanoyl-rac-glycerol] | 1.0 | ≥ 4.0 | ≥ 4.0 | 0 | 1 | ≥ 4 | 500 µg/mL and 2000 µM | 1 | ≥ 5 | ≥ 5 | ≥ 5 | ≥ 5 | ≥ 5 | ≥ 5 | 0.7 | log reduction at 500 µg/mL (HSV-1): ≥ 3.7; lysis of RBCs in whole blood (Red Blood Cells): does not lyse RBCs in whole blood; log reduction at 500 µg/mL (VSV [2]; [5]): ≥ 4; active concentration relative to corresponding free acids (VSV [2]; monoglyceride vs free acid): ten times lower; log reduction at 2000 µg/mL (Group B streptococcus): 4.5
